Measured values from ChEMBL document CHEMBL5230115, “Bioactive pyrrole-based compounds with target selectivity” (Eur J Med Chem, 2020).
Values belong to the compound of their own block, whether it stands above or below them.

Tests used:
A549 [1] = assay: Antiproliferative activity against human A549 cells assessed as cell growth inhibition at 5 uM in presence of etoposide by CellTiter-Glo luminescent assay relative to control; format: functional; set-up: scale not given: the % may be the effect or the level left
A549 [2] = assay: Antiproliferative activity against human A549 cells assessed as cell growth inhibition at 5 uM in presence of doxorubicin by CellTiter-Glo luminescent assay relative to control; format: functional; set-up: scale not given: the % may be the effect or the level left
[3] = target: Mitogen-activated protein kinase 3 (Homo sapiens) (UniProt P27361); assay: Inhibition of ERK1 (unknown origin) at 25 nM relative to control
[4] = target: Vascular endothelial growth factor receptor 2 (Homo sapiens, UniProt P35968); assay: Inhibition of VEGFR2 (unknown origin) at 25 nM using Poly(Glu, Tyr) as substrate by Kinase-Glo plus luminescent kinase assay
PC-3 = assay: Antiproliferative activity against human PC-3 cells assessed as cell growth inhibition measured after 24 hrs by MTT assay; format: functional, cell-based; conditions: PC-3, 24 h
A549 [5] = assay: Antiproliferative activity against human A549 cells assessed as cell growth inhibition measured after 24 hrs by MTT assay; format: functional, cell-based; conditions: A549, 24 h

Sequence of Mitogen-activated protein kinase 3 (Homo sapiens) (P27361 whole entry): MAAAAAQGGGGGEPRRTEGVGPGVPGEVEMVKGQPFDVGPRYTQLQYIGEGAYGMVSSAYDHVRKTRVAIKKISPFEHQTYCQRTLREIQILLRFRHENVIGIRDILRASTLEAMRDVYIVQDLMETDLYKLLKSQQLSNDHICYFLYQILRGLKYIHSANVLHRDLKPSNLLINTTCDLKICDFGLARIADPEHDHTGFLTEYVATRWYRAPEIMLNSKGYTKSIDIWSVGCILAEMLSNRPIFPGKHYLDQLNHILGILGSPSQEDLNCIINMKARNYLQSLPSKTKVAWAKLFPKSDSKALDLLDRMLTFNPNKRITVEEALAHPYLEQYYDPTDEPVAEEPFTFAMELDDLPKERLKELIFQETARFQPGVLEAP
Sequence of Vascular endothelial growth factor receptor 2 (P35968 whole entry): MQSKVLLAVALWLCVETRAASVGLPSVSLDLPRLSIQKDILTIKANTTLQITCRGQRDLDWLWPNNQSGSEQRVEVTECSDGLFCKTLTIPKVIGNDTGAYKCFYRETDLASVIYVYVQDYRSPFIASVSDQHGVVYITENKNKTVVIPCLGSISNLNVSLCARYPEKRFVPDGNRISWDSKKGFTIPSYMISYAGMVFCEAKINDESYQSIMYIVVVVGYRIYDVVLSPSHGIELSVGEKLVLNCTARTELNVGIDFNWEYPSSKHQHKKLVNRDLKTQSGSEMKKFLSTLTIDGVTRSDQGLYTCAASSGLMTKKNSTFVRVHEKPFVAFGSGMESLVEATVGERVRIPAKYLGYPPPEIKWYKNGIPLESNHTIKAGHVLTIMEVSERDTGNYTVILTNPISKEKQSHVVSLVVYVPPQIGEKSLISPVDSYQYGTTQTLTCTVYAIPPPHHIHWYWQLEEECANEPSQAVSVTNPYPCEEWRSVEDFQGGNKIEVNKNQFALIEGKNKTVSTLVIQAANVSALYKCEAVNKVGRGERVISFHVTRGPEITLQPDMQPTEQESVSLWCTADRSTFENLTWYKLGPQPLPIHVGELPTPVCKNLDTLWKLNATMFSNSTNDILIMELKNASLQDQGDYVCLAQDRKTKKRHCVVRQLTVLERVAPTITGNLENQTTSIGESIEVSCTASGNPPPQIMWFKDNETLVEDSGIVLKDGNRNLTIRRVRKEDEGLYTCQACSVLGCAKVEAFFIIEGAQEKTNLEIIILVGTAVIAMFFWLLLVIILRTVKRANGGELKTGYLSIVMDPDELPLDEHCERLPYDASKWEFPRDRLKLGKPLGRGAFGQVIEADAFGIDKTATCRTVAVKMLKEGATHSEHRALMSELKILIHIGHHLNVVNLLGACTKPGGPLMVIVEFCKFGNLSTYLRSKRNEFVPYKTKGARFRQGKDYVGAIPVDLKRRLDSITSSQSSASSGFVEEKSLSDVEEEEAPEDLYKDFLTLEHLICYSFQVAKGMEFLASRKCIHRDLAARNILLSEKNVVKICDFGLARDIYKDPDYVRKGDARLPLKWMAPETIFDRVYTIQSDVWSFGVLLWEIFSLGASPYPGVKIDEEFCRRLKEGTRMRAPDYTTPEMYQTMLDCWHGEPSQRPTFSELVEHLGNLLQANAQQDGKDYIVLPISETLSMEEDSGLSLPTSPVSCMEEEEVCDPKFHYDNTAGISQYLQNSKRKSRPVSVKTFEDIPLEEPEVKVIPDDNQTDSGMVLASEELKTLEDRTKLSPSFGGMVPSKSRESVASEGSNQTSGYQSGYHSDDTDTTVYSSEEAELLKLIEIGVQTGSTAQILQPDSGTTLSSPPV

IC50 (PC-3): 1040 nM
SMILES: Cn1ccc2c(Nc3cccc(Br)c3)nc(NC(=O)Nc3ccc(Cl)c(C(F)(F)F)c3)nc21

IC50 (A549 [5]): 1560 nM
SMILES: Cn1ccc2c(Nc3ccc(Cl)cc3)nc(NC(=O)Nc3ccc(F)cc3)nc21

IC50 (A549 [5]): 350 nM
SMILES: Cn1ccc2c(Nc3ccc(F)c(Cl)c3)nc(NC(=O)Nc3cccc(C(F)(F)F)c3)nc21

IC50 (A549 [5]): 1480 nM
SMILES: Cn1ccc2c(Nc3cccc(Br)c3)nc(NC(=O)Nc3ccc(F)c(C(F)(F)F)c3)nc21

Second part, the compound before the results:

SMILES: COc1ccc(-c2nc3ccc(C(=O)Nc4cn(C)c(C(=O)Nc5cc(C(=O)NCCCN(C)C)n(CCCN)c5)n4)cc3[nH]2)cc1
Activity (A549 [1]): 50%
Activity (A549 [2]): 22%

SMILES: Cc1cccc(NC(=O)Nc2ccc(Nc3ncnc4[nH]c(C)c(C)c34)cc2)c1
inhibition [3]: 50%
IC50 [4]: 11.9 nM

SMILES: Cc1cccc(NC(=O)Nc2ccc(Oc3ncnc4[nH]c(C)c(C)c34)cc2)c1
inhibition [3]: 50%
IC50 [4]: 13.6 nM
